Where a name gives a salt, the structure may show the parent alone.
Tests used:
Type in all cases: cell-based
human PMAT (hPMAT) = biological target: T1, human PMAT (hPMAT) (Homo sapiens, UniProt Q7RTT9); test: Concentration dependence of hPMAT-mediated substrate uptake in MDCK/hPMAT cells; settings: hPMAT-mediated uptake, MDCK/hPMAT minus mock, 3 min, 37 °C, pH 7.4
T1 sequence (Q7RTT9 1-530): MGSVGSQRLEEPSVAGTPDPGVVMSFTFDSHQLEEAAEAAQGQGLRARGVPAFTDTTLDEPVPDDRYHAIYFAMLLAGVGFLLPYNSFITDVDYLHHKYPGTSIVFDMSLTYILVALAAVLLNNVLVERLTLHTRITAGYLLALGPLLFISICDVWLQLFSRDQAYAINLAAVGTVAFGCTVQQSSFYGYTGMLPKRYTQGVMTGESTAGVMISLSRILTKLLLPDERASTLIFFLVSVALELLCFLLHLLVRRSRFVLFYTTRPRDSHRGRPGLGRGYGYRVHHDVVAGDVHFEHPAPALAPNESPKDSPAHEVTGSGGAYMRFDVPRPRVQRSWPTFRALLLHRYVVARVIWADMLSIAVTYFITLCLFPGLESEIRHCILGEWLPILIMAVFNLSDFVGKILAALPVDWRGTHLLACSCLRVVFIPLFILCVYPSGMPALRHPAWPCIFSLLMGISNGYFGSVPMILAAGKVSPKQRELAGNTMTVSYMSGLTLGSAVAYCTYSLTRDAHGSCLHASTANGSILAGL

rat Pmat (rPmat) = test: Concentration dependence of rPmat-mediated substrate uptake in MDCK/rPmat cells; settings: rPmat-mediated uptake, MDCK/rPmat minus mock, 3 min, 37 °C, pH 7.4
mouse Pmat (mPmat) = biological target: T2, mouse Pmat (mPmat) (Mus musculus, UniProt Q8R139); settings: mPmat-mediated uptake, Flp293/mPmat minus mock, 2 min, 37 °C, pH 7.4
T2 sequence (Q8R139 1-528): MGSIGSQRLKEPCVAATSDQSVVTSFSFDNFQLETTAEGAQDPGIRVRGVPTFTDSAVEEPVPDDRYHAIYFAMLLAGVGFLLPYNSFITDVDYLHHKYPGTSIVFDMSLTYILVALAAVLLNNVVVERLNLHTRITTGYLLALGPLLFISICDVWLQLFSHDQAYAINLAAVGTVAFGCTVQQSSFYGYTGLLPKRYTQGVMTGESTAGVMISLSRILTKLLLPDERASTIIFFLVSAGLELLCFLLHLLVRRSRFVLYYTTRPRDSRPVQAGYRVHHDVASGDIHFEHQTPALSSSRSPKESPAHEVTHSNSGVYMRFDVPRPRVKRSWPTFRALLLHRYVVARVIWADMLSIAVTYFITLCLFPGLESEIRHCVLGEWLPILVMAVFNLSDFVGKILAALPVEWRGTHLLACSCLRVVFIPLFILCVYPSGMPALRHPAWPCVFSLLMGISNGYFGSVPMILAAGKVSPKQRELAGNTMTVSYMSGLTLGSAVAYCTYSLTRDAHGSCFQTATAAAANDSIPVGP

For `C[n+]1ccc(-c2ccccc2)cc1` [MPP^+, 1-methyl-4-phenylpyridinium], the Km (human PMAT (hPMAT)) was 33.7 ± 6 µM, the Vmax (human PMAT (hPMAT)) was 0.490 ± 0.190 nmol/min/mg protein and the Km (rat Pmat (rPmat)) was 70.2 ± 12.3 µM. For the same compound, the Vmax (rat Pmat (rPmat)) was 0.210 ± 0.011 nmol/min/mg protein, the Km (mouse Pmat (mPmat)) was 49.5 ± 0.1 µM and the Vmax (mouse Pmat (mPmat)) was 1.59 ± 0.068 nmol/min/mg protein.
`NCCc1c[nH]c2ccc(O)cc12` [Serotonin, 5-hydroxy-[1,2-^3H]tryptamine creatinine sulfate] gave a Km (human PMAT (hPMAT)) of 116 ± 27 µM, a Km (rat Pmat (rPmat)) of 82.9 ± 21.2 µM and a Vmax (rat Pmat (rPmat)) of 1.26 ± 0.12 nmol/min/mg protein.
Compound `[3H]c1c([3H])c(CCN)c([3H])c(O)c1O` [Dopamine, 3,4-dihydroxy-[2,5,6-^3H]phenylethylamine] has a Km (human PMAT (hPMAT)) of 201 ± 34 µM, a Vmax (human PMAT (hPMAT)) of 1.43 ± 0.08 nmol/min/mg protein and a Km (rat Pmat (rPmat)) of 271 ± 50 µM. The Vmax (rat Pmat (rPmat)) was 0.750 ± 0.049 nmol/min/mg protein and the Vmax (rat Pmat (rPmat); listed as dopamine) was 0.750 ± 0.049 nmol/min/mg protein.

From article PMC5352556 (Journal of chemical neuroanatomy, 2016)
